{"source": "paper doi:10.1101/2020.02.18.954925v1", "about": "(biorxiv, 2020)", "biological_target": "Lpg2603 10-C (Legionella pneumophila, UniProt Q5ZSB6)", "sequence (Q5ZSB6 10-434 limits assumed)": "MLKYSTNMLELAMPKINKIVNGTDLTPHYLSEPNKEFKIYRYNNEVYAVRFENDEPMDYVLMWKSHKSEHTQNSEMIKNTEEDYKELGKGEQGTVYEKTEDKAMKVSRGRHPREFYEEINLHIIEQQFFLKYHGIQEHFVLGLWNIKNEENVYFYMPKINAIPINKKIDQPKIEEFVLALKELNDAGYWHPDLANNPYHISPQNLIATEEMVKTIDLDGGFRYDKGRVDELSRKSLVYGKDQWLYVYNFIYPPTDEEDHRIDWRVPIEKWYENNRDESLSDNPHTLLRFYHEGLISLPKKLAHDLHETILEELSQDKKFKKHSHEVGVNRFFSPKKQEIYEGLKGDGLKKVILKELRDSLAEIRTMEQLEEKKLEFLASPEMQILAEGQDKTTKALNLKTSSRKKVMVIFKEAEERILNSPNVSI", "assay": "biochemical"}
{"smiles": "O=P(O)(O)O[C@H]1[C@H](OP(=O)(O)O)[C@@H](OP(=O)(O)O)[C@H](OP(=O)(O)O)[C@@H](OP(=O)(O)O)[C@H]1OP(=O)(O)O", "note": "[inositol hexakisphosphate]", "values": [{"measurement": "Kd", "value": "~315", "unit": "µM"}]}
